Experimental data from patent publication US8030347B2, “Cylopenta[b]benzofuran derivatives and the utilization thereof” (Bayer HealthCare AG, priority 2004, dated 2011).

Experiments:
[1] = tested on: Interleukin-8 (IL-8) release from human endothelial cells; test: Inhibition of interleukin-8 (IL-8) release from human endothelial cells (HUVEC), IL-1β induced, ELISA; type: cell-based; settings: IL-1β 10 ng/ml, 6 h, IL-8 by ELISA, read-out: IC50 (50% inhibition of IL-8 release relative to the maximum effect)
Description: 1.a) Inhibition of Interleukin-8 (IL-8) Release from Human Endothelial Cells
The expression of the human IL-8 gene is controlled by a diversity of regulatory and enhancer elements which are located above the promoter region of the gene. These elements comprise binding sites for transcription factors, and efficient transcription of the IL-8 gene is possible only through the interaction thereof with their DNA binding sites. The activity of the corresponding transcription factors can be induced by various stimuli (e.g. interleukin-1β, tumor necrosis factor-α) and can be modulated by various signal transduction pathways [H. Holtmann et al., Mol. Cell. Biol. 19, 6742-6753 (1999)].
For maximum expression of IL-8, the activity of two different transcription factors is essential: NF-κB and AP-1 [Y.-H. Chang et al., Exp. Cell Res. 278, 166-174 (2000)]. Cytokine-induced IL-8 synthesis can therefore be employed as test system for identifying and characterizing test substances which inhibit directly or indirectly the binding of NF-κB and AP-1 to their DNA binding sites.
Human umbilical cord endothelial cells (HUVEC) were purchased from CellSystems (St. Katharinen, Germany) and cultured in accordance with the supplier's recommendation in EGM-2 medium including growth additions (CellSystems, St. Katharinen, Germany) in 165 cm^2 tissue culture bottles. After the cell lawn has reached 60-80% confluence, the cells are detached from the base of the bottle by trypsin treatment, mechanically dissociated and seeded in a cell density of 5000 cells/well in 96-well microtiter plates (Corning, Wiesbaden, Germany). After 3 days, the culture medium is completely replaced by 170 μl of fresh medium per well. The cells are employed for the experiments on the following day.
To determine the inhibitory effect of the substances according to the invention on IL-8 release, they are firstly dissolved in a concentration ten times higher than the desired final concentration in the test in medium which comprises 1% DMSO. Subsequently, 20 μl of the substance solution are added per well. The formation and release of IL-8 is then induced by adding interleukin-1β (IL-1β, final concentration 10 ng/ml; Biosource GmbH, Solingen, Germany), and the cells are incubated in a CO2 incubator at 37° C. for 6 h. Thereafter, 150 μl of the cell supernatant are removed and frozen at −20° C. until the IL-8 content is measured by ELISA (Biosource GmbH, Solingen, Germany). To carry out the ELISA, the samples are thawed and are diluted 1:10, and the test is carried out in accordance with the manufacturer's instructions. The inhibitory effect of the compounds according to the invention on IL-8 release is ascertained by comparison with vehicle-treated cells.

[2] = Metabolic stability: in vitro incubation with liver microsomes; type: in vitro ADME; settings: Mouse liver microsomes; for CL: calculated from half-life in the incubation mixture; for Fmax: maximum bioavailability calculated from half-life in the incubation mixture
Procedure: In Vitro Incubation with Liver Microsomes:
The hepatic microsomal stability is determined by incubating the substances according to the invention with liver microsomes from various species. The incubation concentration of the substances is kept as low as possible (preferably <1 μM), as is the concentration of the microsomal proteins in the test mixture (preferably 0.2 mg of microsomal protein per ml of incubation mixture). This procedure makes it possible to operate in the linear region of the Michaelis-Menten kinetics for most compounds. A sample is taken from the incubation mixture at various times (seven times in total) to determine the remaining substance concentration. The clearance (CL) and the maximum bioavailability (Fmax) of the test substance is calculated for the respective species from the half-life of the substance in the incubation mixture.
The experiments are carried out as described in detail in J. B. Houston and D. J. Carlile [Drug Metab. Rev. 29, 891-922 (1997)].

H460 cells = test: In vitro proliferation of tumor cells (CellTiter-Glo); type: cell-based; settings: NCI-H460; H460 human lung carcinoma cells, 24 h after addition of substance
Description: Various types of cancer are characterized by uncontrolled, excessive proliferation of various cell types, leading to the development of metastases and tumors. The possible use of the substances according to the invention for the treatment of hyperproliferative disorders can be investigated by their activity on the cell division rate of tumor cells in vitro. The indicator between antiproliferative effect in vitro and clinical antitumor effect is well established. The therapeutic utilizability of, for example, Taxol [Silvestrini et al., Stem Cells 11, 528-535 (1993)], Taxotere [Bissery et al., Anti Cancer Drugs 6, 339 (1995)] or topoisomerase inhibitors [Edelman et al., Cancer Chemother.
The tumor cell lines such as, for example, MDA-MB-231 cells (human breast adenocarcinoma cells), H460 cells (human lung carcinoma cells) or HCT-15 cells (human colon adenocarcinoma cells) are expanded in appropriate growth media (Sigma, Taufkirchen, Germany) recommended by the supplier (e.g. LGC Promochem, Wesel, Germany). One day before adding the compounds according to the invention, the cells are distributed in a density of 3000 cells/well in 100 μl of growth medium on black 96-well microtiter plates with clear base. On the day of addition of test substance, one microtiter plate for each tumor cell line is used to determine the initial cell count present in the wells. The substances according to the invention, diluted in growth medium and DMSO, are added to the related plates. The test substances are usually added in various concentrations starting with 10 μM final concentration in the assay. The DMSO concentration in the assay is 0.1%. Twenty-four hours after addition of the substance, the cell counts in each well are determined using the CellTiter-Glo® Luminescent Cell Viability-Tests (Promega GmbH, Mannheim, Germany). The test is carried out in accordance with the manufacturer's instructions and evaluated using a luminometer. To ascertain the antiproliferative activity of the compounds according to the invention, the cell counts determined before addition of substance in related plates are subtracted, and the percentage difference of the changes in the cell counts between substance-treated and vehicle-treated cells is determined. The relative activity of the different test substances is determined by a comparison of the concentrations which bring about 50% of their maximum effect (IC50).

CCOc1cc(OCC)c2c(c1)O[C@@]1(c3ccc(Cl)cc3)[C@H](c3ccccc3)C[C@@H](N)[C@@]21O (racemic) [Example 15, (1R*,3S*,3aR*,8bS*)-1-Amino-3a-(4-chlorophenyl)-6,8-diethoxy-8b-hydroxy-3-phenyl-2,3,3a,8b-tetrahydrocyclopenta[b]benzofuran]
IC50 [1]: 166 nM
CL [2]: <2.7 L/kg/h
Fmax [2]: >50%

CN(C)CCOc1ccc2c(c1)O[C@@]1(c3ccc(Cl)cc3)[C@H](c3ccccc3)C[C@H](O)[C@@]21O (racemic) [Example 32, (1S*,3S*,3aR*,8bS*)-3a-(4-Chlorophenyl)-6-(2-dimethylaminoethoxy)-3-phenyl-2,3,3a,8b-tetrahydrocyclopenta[b]benzofuran-1,8b-(1H)-diol]
IC50 [1]: 112 nM
IC50 (H460 cells): 0.5 nM
CL [2]: <2.7 L/kg/h
Fmax [2]: >50%

O[C@H]1C[C@@H](c2ccccc2)[C@]2(c3ccc(Cl)cc3)Oc3cccc(OCCN4CCCC4)c3[C@]12O (racemic) [Example 48, (1S*,3S*,3aR*,8bS*)-3a-(4-Chlorophenyl)-3-phenyl-8-(2-pyrrolidin-1-ylethoxy)-2,3,3a,8b-tetrahydrocyclopenta[b]benzofuran-1,8b-(1H)-diol]
IC50 [1]: 214 nM
IC50 (H460 cells): 47.9 nM
CL [2]: <2.7 L/kg/h
Fmax [2]: >50%

CCOc1cc(OCC)c2c(c1)O[C@@]1(c3ccc(-c4ccsc4)cc3)[C@H](c3ccccc3)C[C@@H](O)[C@@]21O (relative stereo) [Example 3, (1R*,3S*,3aR*,8bS*)-6,8-Diethoxy-3-phenyl-2,3,3a,8b-tetrahydro-3a-(4-thiophen-3-ylphenyl)-cyclopenta[b]benzofuran-1,8b-(1H)-diol]
IC50 [1]: 170 nM
CL [2]: <2.7 L/kg/h
Fmax [2]: >50%

CCOc1cc(OCC)c2c(c1)O[C@@]1(c3ccc(Br)cc3)[C@H](c3ccccc3)[C@@H](C(=O)N(C)C)C(=O)[C@@]21O (relative stereo) [Example 12, (2R*,3S*,3aR*,8bR*)-3a-(4-Bromophenyl)-6,8-diethoxy-2-dimethylcarbamid-8b-hydroxy-3-phenyl-2,3,3a,8b-tetrahydrocyclopenta[b]benzofuran-1-one]
IC50 [1]: 466 nM
CL [2]: 2.97 L/kg/h
Fmax [2]: 45.1%

COCCOc1cc(OCCOC)c2c(c1)O[C@@]1(c3ccc(Br)cc3)[C@H](c3ccccc3)C[C@@H](O)[C@@]21O (relative stereo) [Example 18, (1R*,3S*,3aR*,8bS*)-6,8-Bis(2-methoxyethoxy)-3a-(4-bromophenyl)-3-phenyl-2,3,3a,8b-tetrahydrocyclopenta[b]benzofuran-1,8b-(1H)-diol]
IC50 [1]: 20 nM
CL [2]: <2.7 L/kg/h
Fmax [2]: >50%

CN(C)CCOc1cc(OCCN(C)C)c2c(c1)O[C@@]1(c3ccc(Cl)cc3)[C@H](c3ccccc3)C[C@@H](O)[C@@]21O (relative stereo) [Example 21, (1R*,3S*,3aR*,8bS*)-6,8-Bis(2-dimethylaminoethoxy)-3a-(4-chlorophenyl)-3-phenyl-2,3,3a,8b-tetrahydrocyclopenta[b]benzofuran-1,8b-(1H)-diol]
IC50 (H460 cells): 1.5 nM

CN(C)CCOc1cc(OCCN(C)C)c2c(c1)O[C@@]1(c3ccc(Br)cc3)[C@H](c3ccccc3)C[C@H](O)[C@@]21O (relative stereo) [Example 22, (1S*,3S*,3aR*,8bS*)-6,8-Bis(2-dimethylaminoethoxy)-3a-(4-bromophenyl)-3-phenyl-2,3,3a,8b-tetrahydrocyclopenta[b]benzofuran-1,8b-(1H)-diol]
IC50 [1]: 90 nM
CL [2]: <2.7 L/kg/h
Fmax [2]: >50%

CCOc1ccc2c(c1)O[C@@]1(c3ccc(Cl)cc3)[C@H](c3ccccc3)C[C@H](O)[C@@]21O (relative stereo) [Example 23, (1S*,3S*,3aR*,8bS*)-3a-(4-Chlorophenyl)-6-ethoxy-3-phenyl-2,3,3a,8b-tetrahydrocyclopenta[b]-benzofuran-1,8b-(1H)-diol]
IC50 [1]: 202 nM
IC50 (H460 cells): 99.7 nM

CN(C)CCOc1cccc2c1[C@]1(O)[C@@H](O)C[C@@H](c3ccccc3)[C@]1(c1ccc(Cl)cc1)O2 (relative stereo) [Example 49, (1S*,3S*,3aR*,8bS*)-3a-(4-Chlorophenyl)-8-(2-dimethylaminoethoxy)-3-phenyl-2,3,3a,8b-tetrahydrocyclopenta[b]benzofuran-1,8b-(1H)-diol]
IC50 (H460 cells): 29.7 nM
